Assay results published in patent US11590129B2, “Combination therapy with an antitumor alkaloid” (PHARMA MAR, S.A., priority 2010, dated 2023).
Where two headings read alike, the source gives them in different places.

Experiments:
[1] = test system: A549 human lung carcinoma cell line; assay: MTT cytotoxicity assay in A549 cells: IC50 of single agents and combinations with PM01183; format: cell-based; details: Homo sapiens; A549, 72 hours drug exposure, MTT; read-out: IC50
Method in brief: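 A549 cells seeded at 5,000 per well, grown 24 h drug-free, then exposed to vehicle or compounds for 72 h, either singly or combined with PM01183. Combination responses plotted against dose ratio relative to an additivity line.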

[2] = test system: U87-MG human glioblastoma cell line; assay: cells
[3] = test system: SK-MEL-2 human melanoma cell line; assay: cells; details: Homo sapiens, SK-MEL-2, 72 h
Protocol: (§1) a. […] Briefly, cells were harvested and seeded in 96 well microtiter plates at a density of 5,000 cells in 150 μL of culture medium and incubated for 24 hours in drug-free medium before treatment with vehicle alone or test compounds for 72 h.
(§2) The cytotoxic effect was measured by the MTT reduction assay, in which 3-(4,5-Dimethylthiazol-2-yl)-2,5-diphenyltetrazolium bromide, a tetrazole, which is reduced to purple formazan in the mitochondria of living cells, was used. MTT (50 μL of 1 mg/mL stock solution) was added to the wells and incubated for 8 hours at 37° C. until formazan crystals were formed. After gently removing the culture medium, DMSO was added to dissolve the insoluble purple formazan product into a colored solution. […] Results were expressed as percentage of control cell growth.
(§3) b. In a second set of assays, A549 human tumor cells were incubated with PM01183 in combination with each of the agents mentioned above.
(§4) As a visual aid, response values were plotted on a scatter plot with dose ratios given on the x-axis and % response values on the y-axis. […] In cases where response values at the two endpoints were approximately equivalent, points lying above or below this predicted line of additivity could be interpreted as representing antagonistic or synergistic drug interaction, respectively.
(§5) Additional serial dilutions were prepared in serum-free culture medium to achieve a final 4× concentration. Aliquots of 50 μL of each diluted compound were added per well.
SK-MEL-2 was the human melanoma cell line selected for this assay.

[4] = test system: IGROV-1 human ovarian adenocarcinoma cell line; assay: cells
[5] = test system: RXF-393 human kidney carcinoma cell line; assay: cells
[6] = test system: MDA-MB-231 human breast adenocarcinoma cell line; assay: cells; details: Homo sapiens, MDA-MB-231, 72 h
[7] = test system: HepG2 human hepatocellular liver carcinoma cell line; assay: MTT cytotoxicity assay in HepG2 cells: IC50 of single agents and combinations with PM01183; format: cell-based; details: Homo sapiens
[8] = test system: HT-29 human colon adenocarcinoma cell line; assay: cells
Method in brief: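 HT-29 cells (5,000/well) were attached for 24 h, then exposed to vehicle or compounds for 72 h. Viability was read by MTT reduction, with 8 h MTT at 37° C and formazan dissolved in DMSO. Values are % of control cell growth.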

[9] = test system: U-937 human lymphoma cell line; assay: cells; details: Homo sapiens, U-937, 72 h
Protocol: (§6) Briefly, cells were seeded in 96 well microtiter plates at a density of 50000 cells per well in 150 μL of culture medium and incubated for 4-6 hours in drug-free medium before treatment with vehicle alone or test compounds for 72 hours.
(§7) After incubation, the cytotoxic effect was evaluated using a MTT reduction assay. 50 μL of MTT solution (1 mg/mL) were added to the wells and incubated for 15-17 hours at 37° C. until formazan crystals were formed. After gently removing the culture medium, DMSO was added to dissolve the insoluble purple formazan product into a colored solution. […] Results were expressed as percentage of control cell growth. The EC50 values (half-maximal effective concentration) used for the combination studies were calculated using Prism v5.02 software (GraphPad). EC50 was expressed as molar concentration and represented the mean of at least three independent assays.
(§8) Using these starting concentrations, constant serial dilutions were performed to generate the concentration-response curves for each set of drugs, alone and in combination.
(§9) Based on this equation, the term “combination index” (CI) is used as a quantitative measure of the degree of drug interactions. […] CI values were calculated by solving the equation for different values of fa (i.e., for different degrees of cell groth inhibition).
(§10) Data were analyzed using CalcuSyn software (Biosoft, Cambridge, UK). For statistical analysis and graphs Prism software (GraphPad, San Diego, USA) was used. All the results represent the mean of at least three independent experiments.
as §5
(§11) In the second set of assays, concentration-response curves for the agents tested, both alone and in two-drug combination, were performed.

[10] = test system: RAMOS human lymphoma cell line; assay: cells; details: Homo sapiens, Ramos, 72 h
Protocol: as §6, §7, §8, §9, §10, §5, §11

[11] = test system: PANC-1 human pancreatic carcinoma cell line; assay: cells; details: Homo sapiens, PANC-1, 72 h
Protocol: as §1, §2, §3, §4, §5
PANC-1 was the human pancreatic carcinoma cell line selected for this assay.

[12] = test system: HGC-27 human gastric carcinoma cell line; assay: cells
[13] = test system: PC-3 human prostate cancer cell line; assay: cells; details: Homo sapiens, PC-3, 72 h
Method in brief: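 Cells seeded at 5,000/well, grown 24 h drug-free, then exposed to vehicle or test compounds for 72 h. Viability by MTT reduction (8 h, 37 °C), formazan dissolved in DMSO. Values given as percentage of control cell growth.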

[14] = test system: JURKAT human leukemia cell line; assay: cells
Protocol: as §5
(§12) JURKAT and MOLT-4 were the human leukemia cell lines selected for this assay, which were obtained from the American Type Culture Collection (ATCC).
as §6, §7
(§13) b. In a second set of experiments, concentration-response curves for the agents tested, both alone and in two-drug combination, were performed, using the same methodology described in the previous paragraph.
as §8, §9, §10

[15] = test system: A673 human rhabdomyosarcoma cell line; assay: cells
Method in brief: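 A673 cells seeded at 5,000 per well, grown 24 h drug-free, then exposed to compounds for 72 h. Viability by MTT reduction (8 h, 37 °C), formazan dissolved in DMSO. Results expressed as percentage of control cell growth.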

[16] = test system: MOLT-4 human leukemia cell line; assay: cells
Protocol: as §5, §12, §6, §7, §13, §8, §9, §10

Row | Compound | IC50 ([2]; Homo sapiens, U-87 MG, 72 h) | IC50 [3] | IC50 ([4]; Homo sapiens, IGROV-1, 72 h) | IC50 ([5]; Homo sapiens, RXF 393, 72 h) | IC50 [6] | EC50 [9] | EC50 [10] | IC50 [11] | IC50 ([12]; Homo sapiens, HGC-27, 72 h) | IC50 [13] | EC50 ([14]; Homo sapiens, Jurkat, 72 h) | also measured
1 | COc1cccc2c1C(=O)c1c(O)c3c(c(O)c1C2=O)C[C@@](O)(C(C)=O)C[C@@H]3O[C@H]1C[C@H](N)[C@H](O)[C@H](C)O1 [Daunorubicin, daunorubicin] | 0.284 µM | 0.177 µM | 0.355 µM | 0.62 µM | 0.37 µM | 0.304 µM | 0.315 µM | 0.869 µM | 0.372 µM | 1.15 µM | 0.792 µM | IC50 [1]: 0.355 µM; IC50 ([7]; HepG2, 72 hours drug exposure, MTT, read-out: IC50): 0.3 µM; IC50 ([8]; Homo sapiens, HT-29, 72 h): 0.532 µM; IC50 ([15]; Homo sapiens, A673, 72 h): 0.52 µM
2 | aplidine |  |  |  |  |  |  |  |  |  |  |  | IC50 ([2]; U87-MG, 72 hours drug exposure, MTT): 0.0038 µM; IC50 ([4]; IGROV-1, 72 hours drug exposure, MTT): 0.0015 µM; IC50 ([5]; RXF-393, 72 hours drug exposure, MTT): 0.0015 µM; IC50 ([8]; HT-29, 72 hours drug exposure, MTT): 0.00176 µM; IC50 ([12]; HGC-27, 72 hours drug exposure, MTT): 0.009 µM; EC50 ([14]; JURKAT, 72 hours exposure, MTT): 0.0138 µM; EC50 ([16]; MOLT-4, 72 hours exposure, MTT): 0.00127 µM; IC50 ([15]; A673, 72 hours drug exposure, MTT): 0.00216 µM
3 | CN(Cc1cnc2nc(N)nc(N)c2n1)c1ccc(C(=O)N[C@@H](CCC(=O)O)C(=O)O)cc1 [Methotrexate, methotrexate] | 50 µM | 100 µM | 100 µM | 175 µM | 5.94 µM | 0.0263 µM | 5.02 µM | 10 µM | 0.033 µM | 120 µM | 0.145 µM | IC50 ([7]; HepG2, 72 h): 0.0396 µM; EC50 ([16]; Homo sapiens, MOLT-4, 72 h): 0.0439 µM
